Data as given in ChEMBL document CHEMBL1201862, “PubChem BioAssay data set” (2004).
Blank lines part the entries; values can stand above or below the molecule they belong to. The source made the active and inactive calls.

What was measured:
fMet-Leu-Phe receptor = molecular target: T1, fMet-Leu-Phe receptor (Homo sapiens, UniProt P21462); assay: formyl peptide receptor binders – dose response (AID 519); format: functional
T1 sequence (P21462 whole entry): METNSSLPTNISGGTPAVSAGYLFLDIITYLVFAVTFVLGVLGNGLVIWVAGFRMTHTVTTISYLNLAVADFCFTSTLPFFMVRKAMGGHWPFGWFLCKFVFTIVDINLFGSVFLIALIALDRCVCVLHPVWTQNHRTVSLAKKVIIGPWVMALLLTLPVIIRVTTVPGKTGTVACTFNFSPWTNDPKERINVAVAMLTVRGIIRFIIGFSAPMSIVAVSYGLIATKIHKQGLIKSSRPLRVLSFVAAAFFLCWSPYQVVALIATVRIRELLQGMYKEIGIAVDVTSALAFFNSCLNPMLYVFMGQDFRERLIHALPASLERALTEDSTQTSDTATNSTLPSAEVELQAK

[1] = viability of uninfected HEp-2 cells – cell-based, HTS, cytotoxicity control for RSV inhibitor project, dose response (AID 2410); format: functional; details: human respiratory syncytial virus
Fatty acid synthase [2] = molecular target: T2, Fatty acid synthase (Homo sapiens, UniProt P49327); assay: inhibition of human FAS-TE enzyme activity – biochemical, endpoint fluorescence intensity, uHTS hits, dose response (AID 624327); format: functional;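 note: fluorescence from hydrolysis of an O-methyl fluorescein acyl ester substrate by the enzyme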
Fatty acid synthase [3] = molecular target: T2, Fatty acid synthase; assay: inhibition of human FAS-TE enzyme activity – biochemical, kinetic fluorescence intensity, dose response (AID 624326); format: functional;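 note: rate of fluorescence rise from hydrolysis of a fluorogenic O-methyl fluorescein ester substrate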
[4] = molecular target: Heat shock protein HSP 90-alpha (Homo sapiens, UniProt P07900); format: functional, organism-based
[5] = molecular target: Dual specificity tyrosine-phosphorylation-regulated kinase 1A (Rattus norvegicus, UniProt Q63470); format: biochemical, Homo sapiens
Paired box protein Pax-8 = Paired box protein Pax-8 (Homo sapiens, UniProt Q06710); assay: PAX8 transcriptional activity inhibition in RMG-I – RMG-I cells, luciferase, cherry-pick, dose response (AID 687027); format: functional, cell-based;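 note: luciferase reporter driven by Pax8 target thyroperoxidase promoter measured by SteadyGlo luminescence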
[6] = molecular target: T3, Histone-lysine N-methyltransferase NSD2 (Homo sapiens, UniProt O96028); format: biochemical
T3 sequence (O96028 whole entry): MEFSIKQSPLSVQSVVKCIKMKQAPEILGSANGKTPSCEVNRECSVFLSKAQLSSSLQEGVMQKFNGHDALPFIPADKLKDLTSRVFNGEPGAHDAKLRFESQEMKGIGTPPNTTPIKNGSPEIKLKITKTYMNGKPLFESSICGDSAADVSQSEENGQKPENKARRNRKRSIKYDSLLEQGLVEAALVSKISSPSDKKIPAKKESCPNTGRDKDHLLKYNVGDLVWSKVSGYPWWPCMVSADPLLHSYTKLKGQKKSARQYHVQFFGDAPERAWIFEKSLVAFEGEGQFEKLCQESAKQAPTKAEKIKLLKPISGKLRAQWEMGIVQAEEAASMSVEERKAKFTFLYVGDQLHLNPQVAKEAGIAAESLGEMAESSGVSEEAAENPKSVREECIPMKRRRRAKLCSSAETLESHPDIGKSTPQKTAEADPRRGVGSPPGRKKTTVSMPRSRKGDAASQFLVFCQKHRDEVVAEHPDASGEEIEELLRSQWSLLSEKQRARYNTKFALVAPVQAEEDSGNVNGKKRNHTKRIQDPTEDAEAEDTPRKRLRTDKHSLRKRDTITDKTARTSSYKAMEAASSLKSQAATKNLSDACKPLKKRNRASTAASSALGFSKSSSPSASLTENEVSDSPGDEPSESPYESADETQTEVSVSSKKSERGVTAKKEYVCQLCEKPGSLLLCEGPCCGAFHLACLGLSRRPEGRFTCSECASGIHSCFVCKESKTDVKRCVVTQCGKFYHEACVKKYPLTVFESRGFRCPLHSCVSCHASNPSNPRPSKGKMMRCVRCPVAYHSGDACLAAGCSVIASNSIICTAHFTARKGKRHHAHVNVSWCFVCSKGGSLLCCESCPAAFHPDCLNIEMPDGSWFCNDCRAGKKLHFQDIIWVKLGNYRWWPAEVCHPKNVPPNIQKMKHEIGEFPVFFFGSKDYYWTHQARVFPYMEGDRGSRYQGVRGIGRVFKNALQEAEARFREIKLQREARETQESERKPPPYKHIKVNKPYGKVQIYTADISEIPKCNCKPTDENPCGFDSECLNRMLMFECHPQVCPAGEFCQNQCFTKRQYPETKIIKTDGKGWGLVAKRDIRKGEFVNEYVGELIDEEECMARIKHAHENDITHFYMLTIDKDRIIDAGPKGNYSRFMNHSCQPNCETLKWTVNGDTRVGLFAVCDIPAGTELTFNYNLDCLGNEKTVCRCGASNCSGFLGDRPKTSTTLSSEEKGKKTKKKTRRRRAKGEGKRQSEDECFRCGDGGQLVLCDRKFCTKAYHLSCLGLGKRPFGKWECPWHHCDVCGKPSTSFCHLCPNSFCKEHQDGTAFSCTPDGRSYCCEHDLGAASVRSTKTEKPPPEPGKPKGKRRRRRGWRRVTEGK

[7] = molecular target: T4, Tyrosyl-DNA phosphodiesterase 2 (Homo sapiens, UniProt O95551); assay: potency against TDP2 phosphodiesterase activity – biochemical, epi absorbance, IC50, dose response (AID 743297)
T4 sequence (O95551 whole entry): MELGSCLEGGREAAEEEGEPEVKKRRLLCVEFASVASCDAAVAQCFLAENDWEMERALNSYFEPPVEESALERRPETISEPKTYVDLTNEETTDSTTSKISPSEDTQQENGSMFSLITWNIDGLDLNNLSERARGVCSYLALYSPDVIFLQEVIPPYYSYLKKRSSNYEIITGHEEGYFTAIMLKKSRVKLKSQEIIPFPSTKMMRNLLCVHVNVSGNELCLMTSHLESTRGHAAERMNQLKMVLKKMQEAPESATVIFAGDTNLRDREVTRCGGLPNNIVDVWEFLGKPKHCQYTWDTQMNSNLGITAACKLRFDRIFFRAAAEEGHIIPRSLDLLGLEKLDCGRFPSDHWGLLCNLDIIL

Kallikrein-7 = Kallikrein-7 (Homo sapiens, UniProt P49862); assay: Fluorescence Intensity-based biochemical primary high throughput dose response assay to identify activators of kallikrein-7 (K7) zymogen.
[8] = growth inhibition of yeast DHODH-expressing 3D7 parasites – SYBR Green, dry powder samples, dose response (AID 1159570); format: functional, cell-based;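 note: parasite growth measured after 72 hours of compound exposure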
[9] = P. falciparum Dd2 growth inhibitors, dose response, SYBR Green, cherry-picked samples (AID 1159567); format: functional, cell-based
[10] = Dd2 malaria parasite growth inhibition potency – SYBR Green, dry powder samples, dose response (AID 1159566); format: functional, cell-based;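 note: potency for growth inhibition with lower SYBR green DNA signal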
[11] = growth inhibition of PfATP4-mutant resistant parasites – NITD609-resistant line, SYBR Green, dry powder, dose response (AID 1159571); format: functional, cell-based;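 note: parasites synchronized at ring stage by sorbitol before testing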
[12] = toxicity toward HepG2 liver cells – cell-based, plate reader, cherry-pick, antagonist series, cytotoxicity control, dose response (AID 743416); format: functional
[13] = blockers of bursicon-stimulated LGR2 cAMP reporter – cell-based, HEK293, CRE-luciferase reporter, cherry pick, set 2, dose response (AID 743343); format: functional;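 note: transfected cells were stimulated with diluted bursicon conditioned medium after compound addition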
[14] = blockade of melanocortin 4 receptor signaling – cell-based, plate reader, cherry pick, counter-screen for LGR2 antagonist project, dose response (AID 743444); format: functional;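 note: transfected HEK 293 cells stimulated with alpha-MSH peptide; potency of inhibitors of the alpha-MSH evoked signal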
[15] = viability loss in HEK293 cells – cell-based, plate reader, cherry-picked samples, cytotoxicity control, dose response (AID 743446); format: functional

T2 sequence (P49327 whole entry): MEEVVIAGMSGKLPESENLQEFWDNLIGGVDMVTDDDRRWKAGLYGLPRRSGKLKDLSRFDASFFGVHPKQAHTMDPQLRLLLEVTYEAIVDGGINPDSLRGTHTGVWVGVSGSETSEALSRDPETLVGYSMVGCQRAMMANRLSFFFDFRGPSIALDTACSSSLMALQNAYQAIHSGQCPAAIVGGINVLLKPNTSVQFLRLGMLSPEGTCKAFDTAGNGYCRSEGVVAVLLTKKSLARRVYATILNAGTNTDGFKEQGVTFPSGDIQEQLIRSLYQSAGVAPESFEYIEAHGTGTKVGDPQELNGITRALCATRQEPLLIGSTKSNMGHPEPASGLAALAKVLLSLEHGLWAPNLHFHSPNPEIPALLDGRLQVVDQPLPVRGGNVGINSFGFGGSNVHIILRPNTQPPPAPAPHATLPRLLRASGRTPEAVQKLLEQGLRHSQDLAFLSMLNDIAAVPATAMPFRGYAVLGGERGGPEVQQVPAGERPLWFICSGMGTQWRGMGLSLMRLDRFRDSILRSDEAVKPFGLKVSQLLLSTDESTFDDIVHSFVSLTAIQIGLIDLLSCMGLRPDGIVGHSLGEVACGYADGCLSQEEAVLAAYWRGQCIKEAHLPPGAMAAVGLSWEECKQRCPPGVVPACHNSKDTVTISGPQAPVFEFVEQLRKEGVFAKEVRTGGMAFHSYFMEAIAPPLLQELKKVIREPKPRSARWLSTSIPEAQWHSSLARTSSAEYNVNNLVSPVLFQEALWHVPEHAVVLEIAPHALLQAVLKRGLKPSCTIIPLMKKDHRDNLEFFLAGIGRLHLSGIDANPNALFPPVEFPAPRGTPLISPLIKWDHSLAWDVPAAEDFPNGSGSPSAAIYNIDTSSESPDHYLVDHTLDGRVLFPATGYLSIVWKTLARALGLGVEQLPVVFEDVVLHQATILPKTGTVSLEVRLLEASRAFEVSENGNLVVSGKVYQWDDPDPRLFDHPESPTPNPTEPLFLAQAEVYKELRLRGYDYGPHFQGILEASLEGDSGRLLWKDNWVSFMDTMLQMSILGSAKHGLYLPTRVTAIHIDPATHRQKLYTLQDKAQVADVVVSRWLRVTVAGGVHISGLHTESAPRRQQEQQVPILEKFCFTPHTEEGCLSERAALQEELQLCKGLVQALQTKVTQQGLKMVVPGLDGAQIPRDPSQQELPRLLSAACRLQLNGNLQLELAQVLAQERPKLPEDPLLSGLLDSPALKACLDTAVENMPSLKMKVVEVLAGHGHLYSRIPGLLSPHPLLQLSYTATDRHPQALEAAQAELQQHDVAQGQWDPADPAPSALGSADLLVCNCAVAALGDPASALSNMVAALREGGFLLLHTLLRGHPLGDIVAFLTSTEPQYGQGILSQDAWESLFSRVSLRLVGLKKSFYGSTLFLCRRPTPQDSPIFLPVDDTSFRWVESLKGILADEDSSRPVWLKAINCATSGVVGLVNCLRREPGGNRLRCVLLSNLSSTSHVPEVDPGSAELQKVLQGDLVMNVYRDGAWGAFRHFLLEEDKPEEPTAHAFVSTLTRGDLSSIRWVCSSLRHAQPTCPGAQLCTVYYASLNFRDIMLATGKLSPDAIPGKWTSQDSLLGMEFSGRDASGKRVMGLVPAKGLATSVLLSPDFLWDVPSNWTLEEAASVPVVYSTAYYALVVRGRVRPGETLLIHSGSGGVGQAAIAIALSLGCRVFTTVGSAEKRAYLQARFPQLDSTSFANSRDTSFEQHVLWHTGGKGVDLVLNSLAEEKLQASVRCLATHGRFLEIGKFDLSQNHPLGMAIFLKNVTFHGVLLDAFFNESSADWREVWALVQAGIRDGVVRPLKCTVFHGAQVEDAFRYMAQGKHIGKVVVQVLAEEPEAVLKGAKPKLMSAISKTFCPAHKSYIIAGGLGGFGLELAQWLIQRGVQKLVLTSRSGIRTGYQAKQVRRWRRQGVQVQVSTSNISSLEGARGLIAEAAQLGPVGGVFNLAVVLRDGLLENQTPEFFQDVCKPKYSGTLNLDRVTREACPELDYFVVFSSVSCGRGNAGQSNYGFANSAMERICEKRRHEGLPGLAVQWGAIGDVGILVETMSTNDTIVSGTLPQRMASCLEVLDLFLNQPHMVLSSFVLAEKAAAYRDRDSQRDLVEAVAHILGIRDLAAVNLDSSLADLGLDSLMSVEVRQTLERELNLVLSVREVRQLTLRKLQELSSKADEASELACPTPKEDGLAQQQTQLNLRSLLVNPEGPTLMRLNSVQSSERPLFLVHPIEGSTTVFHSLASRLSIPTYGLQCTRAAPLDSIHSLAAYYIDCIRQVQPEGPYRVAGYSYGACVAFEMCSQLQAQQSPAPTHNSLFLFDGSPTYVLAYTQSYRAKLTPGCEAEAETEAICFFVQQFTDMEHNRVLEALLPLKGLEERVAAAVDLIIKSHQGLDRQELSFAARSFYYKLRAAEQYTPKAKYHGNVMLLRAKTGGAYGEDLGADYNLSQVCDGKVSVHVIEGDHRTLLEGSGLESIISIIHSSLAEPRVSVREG
Kallikrein-7, sequence (P49862 whole entry): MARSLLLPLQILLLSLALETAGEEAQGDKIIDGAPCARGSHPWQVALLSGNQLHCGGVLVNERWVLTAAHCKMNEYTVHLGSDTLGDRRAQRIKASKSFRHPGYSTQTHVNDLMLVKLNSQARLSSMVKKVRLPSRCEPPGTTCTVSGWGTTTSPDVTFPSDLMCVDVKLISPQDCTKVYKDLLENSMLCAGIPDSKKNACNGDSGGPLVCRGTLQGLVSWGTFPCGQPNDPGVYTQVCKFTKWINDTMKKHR
Paired box protein Pax-8, sequence (Q06710 whole entry): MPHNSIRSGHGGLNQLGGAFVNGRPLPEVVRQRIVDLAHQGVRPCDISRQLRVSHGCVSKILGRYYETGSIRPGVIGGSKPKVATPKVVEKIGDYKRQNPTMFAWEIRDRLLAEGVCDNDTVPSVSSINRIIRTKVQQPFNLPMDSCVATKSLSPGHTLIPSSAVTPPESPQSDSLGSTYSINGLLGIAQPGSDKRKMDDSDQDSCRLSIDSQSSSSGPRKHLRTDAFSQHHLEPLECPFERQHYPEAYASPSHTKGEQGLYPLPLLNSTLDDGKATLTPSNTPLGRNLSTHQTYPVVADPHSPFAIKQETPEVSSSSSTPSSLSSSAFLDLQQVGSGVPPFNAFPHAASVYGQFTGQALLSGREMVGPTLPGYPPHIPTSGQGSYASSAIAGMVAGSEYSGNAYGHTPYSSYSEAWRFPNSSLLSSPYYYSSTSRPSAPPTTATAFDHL

Ki (fMet-Leu-Phe receptor): 27.4 µM (inactive)
Compound: Cc1nc2c(C#N)cnn2c(O)c1Cc1ccccc1

Ki (fMet-Leu-Phe receptor): > 66.7 µM (inactive)
Compound: CC1Cc2cc(C(=O)C3=C(O)C(=O)N(CCN4CCOCC4)C3c3ccccc3F)ccc2O1 (centres undefined)

IC50 (Fatty acid synthase [2]): 11.7 µM (active)
IC50 (Fatty acid synthase [3]): 7.25 µM (active)
Compound: O=C(/C=C/c1cccc([N+](=O)[O-])c1)NCCSCc1cccc(Cl)c1
CC50 [1]: 14.3 µM (active)

Compound: Cc1ccc2c(c1C)-c1c(ccc(C)c1C)C(=O)C2=O
AC50 [4]: 2.79 µM (active)
AC50 [5]: 3.16 µM (active)
IC50 (Fatty acid synthase [2]): 7.89 µM (active)
IC50 (Fatty acid synthase [3]): 5.23 µM (active)
AC50 (Paired box protein Pax-8): 3.67 µM (active)
AC50 [6]: 0.531 µM (active)
IC50 [7]: 8.67 µM (active)

Ki (fMet-Leu-Phe receptor): > 66.7 µM (inactive)
Compound: CCOC(=O)CSc1nnc(CNC(=O)c2cc(OCC)c(OCC)c(OCC)c2)n1C

IC50 (Fatty acid synthase [2]): 2.71 µM (active)
IC50 (Fatty acid synthase [3]): 3.99 µM (active)
EC50 (Kallikrein-7): > 69.5 µM (inactive)
Compound: CCOC(=O)c1cc2c(=O)n3ccccc3nc2n(CC2CCCO2)/c1=N/C(=O)/C=C/c1ccccc1 (centres undefined)

Compound: COc1ccc(C#Cc2ccc3c(c2)O[C@H](CN(C)S(=O)(=O)c2ccccc2F)[C@@H](C)CN([C@H](C)CO)S3(=O)=O)cc1
AC50 [8]: 1.38 µM (active)
AC50 [9]: 1.7 µM (active)
AC50 [10]: 1.12 µM (active)
AC50 [11]: 1.21 µM (active)

Compound: COc1ccc2nc(-c3ccc(F)cc3)sc2c1
AC50 [12]: > 52 µM (inactive)
AC50 [13]: 2.55 µM (active)
AC50 [14]: 2.35 µM (active)
AC50 [15]: > 52 µM (inactive)
